In patent EP0510235A1, “Novel benzoxazine or benzothiazine derivatives and process for the preparation of the same” (DONG-A PHARM. CO., LTD., priority 1991, dated 1992):
Several values for one entry are separate records, joined by “and”; a condition that tells them apart may be missing. Identical values can stand only once.

What was measured:
[1] = test system: blood-perfused sino-atrial preparation; assay: Determination of sinus rate on blood-perfused sino-atrial preparation; design: species or system dog; details: vs sinus rate prior to injection; for activation at 0.003 mg: dose 3.0 ug; for activation at 0.01 mg: dose 10.0 ug; for activation at 0.03 mg: dose 30.0 ug; for activation at 0.0001 mg: dose 0.1 ug; for change of sinus rate(%): listed as 8-methyl-6-(4-met-hylimidazol-1-)-( 4H)-3,1-benzothia-zin-2-one
Description: Mongrel dogs of either sex weighing 7-12kg were anesthetized with sodium pentoba rbital(30mg/kg i.v.). Heparin of 1000 unit/kg was administered to each animal intravenously and the animals were exsanguinated. Heart was removed and put in Krebs-Henselelt solution. Catheter was inserted into blood vessel between right coronary artery and SA nodes. Right artrium and catheter were together removed. Blood supplied from carotid artery of donor dog of either sex weighing 15-25kg, was supplied to blood vessel cather from right coronary artery and SA node under constant blood pressure of 100mmHg by use of Peristaltic pump. The resting tension of right atrial muscle was made to 2g. The sinus rate triggered by spontaneous contraction of atrial muscle was determined on Narco physiograph(Narcotrace 4). Detailed method was reported by S. Chiba, et al. in Japanese Pharmacology 25, 433-439(1975). Doses of test compounds were injected into flowing blood in gum tube connected to the near part of the catheter inserted into right coronary artery. The effects on sinus rate were shown as percent compared with the sinus rate prior to the injection of the test compounds.

[2] = test system: blood perfused papillary muscle preparation; assay: Determination of contractile power on blood perfused papillary muscle preparation; design: species or system dog; details: for ED 30: dose giving 30% increase of developed tension, least-square method
Description: Dogs of either sex weighing 7-12kg were anesthetized with sodium pentobarbital (30mg/kg,i.v.). Heparin of 1000 unit/kg was administered to each animal intravenously. The animals were exsanguinated and heart was removed. The preparation was perfused through the cannulated anterior septal artery(ASA) with arterial blood from a donor dog at constant pressure of about 100 mmHg. Donor dogs were anesthetized with sodium pentobarbital (30mg/kg, i.v.). Heparin of 1000 units/kg was administered intravenously. The papillary muscle was stimulated with rectangular pulses of 5- ms duration and about 1.5 times the threshold voltage at a rate of 120 stimuli/min through bipolar electrodes.Resting tension was made to 2 g.The developed tension of papillary muscle was determined by Isometric tresducer.Detailed method was reported by Matsumoto in Am. J. Physiol. 218, 1459-1463 (1970). Test compound at the doses of 10-30ul was injected in flowing blood in the gum tube connected to catheter. The inotropic effect of the test compounds was shown by change percent of developed tension compared with that prior to the administration of the test compounds.ED₃₀ value was determined by least-square method and the results were shown in the Table 1.

[3] = Acute toxicity test in rats, oral; details: rat, in vivo
Description: Acute toxicity test of 6-(4-methylimidazol-1-yl)-(4H)-3,1-benzoxazin-2-one was conducted in Spraque-Dawley rats. The test compound was suspended in 5% arabic gum and was administered orally to six rats at a dose of 300mg/kg body weight.
Accordingly, LD 50 of the compound is 300 mg/kg or more.

[4] = target: cyclic AMP phosphodiesterase; assay: Effect on cyclic AMP phosphodiesterase isolated from dog's heart; type: biochemical; details: substrate 1.0 uM; for Inhibitory effect on PDE activity: values fall with concentration
Description: Dogs weighing 10 kg were anesthetized with sodium pentobarbital and heparin was administered intravenously. Heart was removed. Two to four grams of left ventricular muscle was obtained and the tissue was rinsed in ice-cold salin. Left ventricular muscle was homogenized in10 volumes of homogenzing buffer(Tris-HCl, pH 7.8). Homogenate was then centrifuged at 100,000 X g for 40 minutes, after which the supernatent was removed. The pellet was resuspended in homogenizing buffer, centrifuged as before and the supernatent obtained as discarded. The pellet was resuspended in 10 volumes of homogenizing buffer containing Triton X-100 and Brij 30, and incubated overnight at 4°C. The detergent-extracted proteins were then separated by centrifugation at 100,000 X g for 40 monutes. The detergent-extracted protein was dialyzed against 70mM sodium acetate /5mM 2-mercaptoethanol(pH 6.5) for 5 hours. The dialyzed extract was applied to a DEAE-cellulose column and eluted using a 70-1000 mM sodium acetate gradient. Appropriate fractions were pooled and concentrated using Amicon ultrafiltration cell. Following concentration, the protein was diluted with ethylene glycol and stored at -20°C.
Phosphodiesterase activity was measured in a reaction medium (40mM Tris-HCl, pH 8.0). The concentration of substrate was 1.0 uM. The IC 50 values( concentration which produced 50% inhibition of substrate hydrolysis) for the various compounds examined were determined from concentration-response curves. Detailed method of this experiment was reported in J.Mol.Cell Cardiol. 19, 1025-1036 (1987).

[5] = Acute toxicity test in ICR mouse, intravenous; details: in vivo
Description: Acute toxicity test of 6-(4-methylimidazol-1-yl)-(4H)-3,1-benzothiazin-2-one was conducted in ICR mouse. The test compound was dissolved in a mixed solvent of saline and DMF (2:1) and was administered intraveneously to five mice at a dose of 30mg/kg body weight. […] Accordingly, LD₅₀ of the cmpound is 30mg/kg or more.

[6] = Acute toxicity test in mice, oral; details: mouse, in vivo
Description: Acute toxicity test of 6-(4-methylimidazol-1-yl)-(4H)-3,1-benzothiazine-2-thione was conducted in BALB/C mice. The test compound was suspended in 5% arabic gum solution and administered orally to five mice at a dose of 200 mg/kg body weight by gastric tubing. […] Accordingly, LD₅₀ of the compound is 200mg/kg or more.

[7] = Canis lupus familiaris, dose 1.0 ug, read-out: change of sinus rate(%)
[8] = Canis lupus familiaris, read-out: change of sinus rate(%)
[9] = at the ED 30 dose (30% by definition)

Row | SMILES | activation at 0.001 mg [1, 7] [%] | activation at 0.003 mg [1, 8] [%] | activation at 0.01 mg [1, 8] [%] | activation at 0.03 mg [1, 8] [%] | ED 30 [2] | change of contractivity(%) [2, 9] [%] | also measured
1 | Cc1cn(-c2ccc3c(c2)COC(=O)N3)c(C)n1 [6-(2,4-dimethylimidzol-1-yl)-(4H)-3,1-benzoxazin-2-one] | 0 | 0 | 0 | 1.67 | ED 30 : 81.89 ug |  | 
2 | CCc1nc(C)cn1-c1ccc2c(c1)COC(=O)N2 [6-(2-ethyl-4-methylimidazol-1-yl)-(4H)-3,1-benzoxazin-2-one] | 0 | 0 | 0.83 | 1.65 | ED 30 : 269 ug |  | 
3 | Cc1nccn1-c1ccc2c(c1)COC(=O)N2 [6-(2-methylimidazol-1-yl)-(4H)-3,1-benzoxazine-2-one] | 0 | 0 | 0.86 | 3.42 | ED 30 > 1000 ug |  | 
4 | Cc1cn(-c2ccc3c(c2)COC(=O)N3)cn1 [6-(4-methylimidazol-1-yl)(4H)-3,1-benzoxazin-2-one] | 0 | 2.52 | 5.04 |  | ED 30 : 10.4 ug |  | LD50 [3]: ≥ 300 mg/kg; IC50 ([4]; 50% inhibition of substrate hydrolysis): 12.8 µM; Inhibitory effect on PDE activity ([4]; test compound 0.1 uM): 95.1; Inhibitory effect on PDE activity ([4]; test compound 1 uM): 77.5; Inhibitory effect on PDE activity ([4]; test compound 10 uM): 51.7; Inhibitory effect on PDE activity ([4]; test compound 100 uM): 35.8
5 | Cc1cn(-c2ccc3c(c2)CSC(=O)N3)cn1 [6-(4-methylimidazol-1-yl)-(4H)-3,1-benzothiazin-2-one] |  | 2.3 |  | 5.6 |  | 30 | LD50 [5]: ≥ 30 mg/kg; change of contractivity(%) ([2]; dose 1.0 ug injected into perfusing blood, developed tension vs before administration): 0.0%; change of contractivity(%) ([2]; dose 3.0 ug injected into perfusing blood, developed tension vs before administration): 7.2% and 1.5%; change of contractivity(%) ([2]; dose 10.0 ug injected into perfusing blood, developed tension vs before administration): 20.5% and 11.5%; change of contractivity(%) ([2]; dose 30.0 ug injected into perfusing blood, developed tension vs before administration): 30.7% and 23.3%
6 | Cc1cn(-c2ccc3c(c2)CSC(=S)N3)cn1 [6-(4-methylimidazol-1-yl)-(4H)-3,1-benzothiazine-2-thione] |  |  |  |  |  |  | LD50 [6]: ≥ 200 mg/kg
7 | O=C1Nc2ccc(-n3cnc4ccccc43)cc2CO1 [6-(benzimidazol-1-yl)-(4H)-benzoxazin-2-one] | 0 | 0 | 0.3 | 0.75 | ED 30 > 1000 ug |  | Inhibitory effect on PDE activity ([4]; test compound 0.1 uM, listed as 6-(benzimidazol-1-yl)-(4H)-3,1-benzoxazin-2-one): 95.5; Inhibitory effect on PDE activity ([4]; test compound 1 uM, listed as 6-(benzimidazol-1-yl)-(4H)-3,1-benzoxazin-2-one): 90.4; Inhibitory effect on PDE activity ([4]; test compound 10 uM, listed as 6-(benzimidazol-1-yl)-(4H)-3,1-benzoxazin-2-one): 72.3; Inhibitory effect on PDE activity ([4]; test compound 100 uM, listed as 6-(benzimidazol-1-yl)-(4H)-3,1-benzoxazin-2-one): 49.5
8 | O=C1Nc2ccc(-n3ccnc3)cc2CS1 [6-(imidazol-1-yl)-(4H)-3,1-benzothiazin-2-one] |  |  |  |  |  | 30 | 
9 | O=C1Nc2ccc(-n3ccnc3)cc2CO1 [6-(imidazol-1-yl)-(4H)-3,1-benzoxazin-2-one] | 0 | 0.84 | 2.52 | 6.67 | ED 30 > 1000 ug |  | Inhibitory effect on PDE activity ([4]; test compound 0.1 uM): 98.4; Inhibitory effect on PDE activity ([4]; test compound 1 uM): 74.5; Inhibitory effect on PDE activity ([4]; test compound 10 uM): 52.2; Inhibitory effect on PDE activity ([4]; test compound 100 uM): 28.8
10 | Cc1cn(-c2cc(C)c3c(c2)CSC(=O)N3)cn1 [8-methyl-6-(4-methylimidazol-1-yl)-(4H)-3,1-benzothiazin-2-one] |  | 3.3 |  |  | ED 30 = 5.0 ug | 30.0 | activation at 0.0001 mg [1, 8]: 1.7%; change of sinus rate(%) ([1]; dose 0.3 ug): 4.8%; change of sinus rate(%) ([1]; dose 1.0 ug): 8.3%; ED 30 ([2]; listed as 8-methyl-6-(4-met-hylimidazol-1-)-( 4H)-3,1-benzothia-zin-2-one): ED 30 = 0.6 ug
11 | Cc1cn(-c2cc(C)c3c(c2)COC(=O)N3)cn1 [8-methyl-6-(4-methylimidazol-1-yl)-(4H)-3,1-benzoxazin-2-one] | 6.6 | 5.8 |  |  | ED 30 = 1.2 ug | 30.0 | activation at 0.0001 mg [1, 8]: 0.8%; activation at 0.0003 mg ([1]; Canis lupus familiaris, dose 0.3 ug, read-out: change of sinus rate(%)): 1.7%
